Results reported in ChEMBL document CHEMBL1201862, “PubChem BioAssay data set” (2004).
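Compound exposure: 48 hours, 5 concentrations, 96-well plates. Abbreviation: GI50, concentration required for 50% inhibition of growth.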 Active and inactive are the calls of the source. No stated cut-off is given here; in the data, active = GI50 up to about 1.1 µM and inactive = higher.

Legend:
Test in all cases: inhibition of tumour cell growth, NCI panel, 48 h
SF-268 = tested on: SF-268
COLO 205 = tested on: COLO 205
M14 = tested on: M14
HOP-62 = tested on: HOP-62
OVCAR-8 = tested on: OVCAR-8
HL-60 = tested on: HL-60
LOX IMVI = tested on: LOX IMVI
Hs-578T = tested on: Hs-578T
UACC-62 = tested on: UACC-62
HCC 2998 = tested on: HCC 2998
HCT-15 = tested on: HCT-15
ACHN = tested on: ACHN
K562 = tested on: K562
BT-549 = tested on: BT-549
SW-620 = tested on: SW-620
SF-295 = tested on: SF-295
OVCAR-4 = tested on: OVCAR-4
RPMI-8226 = tested on: RPMI-8226
SK-OV-3 = tested on: SK-OV-3
SF-539 = tested on: SF-539

SMILES | GI50 (SF-268) | GI50 (COLO 205) | GI50 (M14) | GI50 (HOP-62) | GI50 (OVCAR-8) | GI50 (HL-60) | GI50 (LOX IMVI) | GI50 (Hs-578T) | GI50 (UACC-62) | GI50 (HCC 2998) | GI50 (HCT-15) [µM] | GI50 (ACHN) | GI50 (K562) | GI50 (BT-549) | GI50 (SW-620) | GI50 (SF-295) | GI50 (OVCAR-4) | GI50 (RPMI-8226) | GI50 (SK-OV-3) | GI50 (SF-539)
CC1C2C=CC1C(c1c3ccc(=O)c(O)c-3oc3c(O)c(O)ccc13)C2C(=O)O (stereo unspecified) | > 100 µM (inactive) | > 100 µM (inactive) | > 100 µM (inactive) | > 100 µM (inactive) | > 100 µM (inactive) | 44.3 µM (inactive) | 20.9 µM (inactive) | 89.5 µM (inactive) | > 100 µM (inactive) | > 100 µM (inactive) | 47.2 | 53.5 µM (inactive) | 21.4 µM (inactive) | > 100 µM (inactive) | 34.3 µM (inactive) | 43.2 µM (inactive) | 78.9 µM (inactive) | 23.2 µM (inactive) | > 100 µM (inactive) | 
COc1cc(C[C@H]2c3cc(OC)c(OC)cc3CCN2C)c(Oc2cc3c(cc2OC)-c2c(OC)c(OC)cc4c2[C@H](C3)N(C)CC4)cc1OC [THALICARPINE] | 9.98 µM (inactive) | 5.75 µM (inactive) | 1.52 µM (inactive) | 10.6 µM (inactive) | 7.43 µM (inactive) | 2.84 µM (inactive) | 7.21 µM (inactive) | 2.99 µM (inactive) | 6.65 µM (inactive) | 7.6 µM (inactive) | 5.04 | 12.9 µM (inactive) | 4.88 µM (inactive) | 6.52 µM (inactive) | 7.53 µM (inactive) | 10.1 µM (inactive) | 8.3 µM (inactive) | 8.04 µM (inactive) |  | 8.28 µM (inactive)
CCCCc1ccc(Nc2nc(Cl)c3ncn(C4CC(Oc5ccc(C)cc5)C(COc5ccc(C)cc5)O4)c3n2)cc1 (stereo unspecified) | > 100 µM (inactive) | > 100 µM (inactive) | > 100 µM (inactive) | 75.2 µM (inactive) | > 100 µM (inactive) | 89.9 µM (inactive) | > 100 µM (inactive) | > 100 µM (inactive) | > 100 µM (inactive) | 44.9 µM (inactive) | > 100 | > 100 µM (inactive) | > 100 µM (inactive) | > 100 µM (inactive) | > 100 µM (inactive) | > 100 µM (inactive) |  | > 100 µM (inactive) | > 100 µM (inactive) | > 100 µM (inactive)
N=C(N)N/N=C\c1ccc(C2CCNCC2)cc1 | > 100 µM (inactive) | > 100 µM (inactive) | > 100 µM (inactive) | > 100 µM (inactive) | > 100 µM (inactive) |  | > 100 µM (inactive) | > 100 µM (inactive) | > 100 µM (inactive) | > 100 µM (inactive) | > 100 | > 100 µM (inactive) | > 100 µM (inactive) | > 100 µM (inactive) | > 100 µM (inactive) | > 100 µM (inactive) | > 100 µM (inactive) | > 100 µM (inactive) | > 100 µM (inactive) | > 100 µM (inactive)
N#Cc1[nH]c(=S)[nH]c1N | > 100 µM (inactive) | > 100 µM (inactive) |  | > 100 µM (inactive) | > 100 µM (inactive) | > 100 µM (inactive) | > 100 µM (inactive) | 2.99 µM (inactive) | > 100 µM (inactive) | > 100 µM (inactive) | > 100 | > 100 µM (inactive) | > 100 µM (inactive) | > 100 µM (inactive) | > 100 µM (inactive) | > 100 µM (inactive) | > 100 µM (inactive) |  | > 100 µM (inactive) | > 100 µM (inactive)
N/C(CSCCSC/C(N)=N/O)=N\O | > 100 µM (inactive) | > 100 µM (inactive) | > 100 µM (inactive) | > 100 µM (inactive) |  | > 100 µM (inactive) | > 100 µM (inactive) | > 100 µM (inactive) | > 100 µM (inactive) | > 100 µM (inactive) | > 100 | > 100 µM (inactive) | > 100 µM (inactive) | > 100 µM (inactive) | > 100 µM (inactive) |  | > 100 µM (inactive) | > 100 µM (inactive) | > 100 µM (inactive) | > 100 µM (inactive)
COc1ccc2c3c1OC1C4(CCC5C(C2)N(CC2CC2)CCC351)OCCO4 (stereo unspecified) | > 100 µM (inactive) | > 100 µM (inactive) | > 100 µM (inactive) | > 100 µM (inactive) | > 100 µM (inactive) | > 100 µM (inactive) | > 100 µM (inactive) | > 100 µM (inactive) | > 100 µM (inactive) | > 100 µM (inactive) | > 100 | > 100 µM (inactive) | > 100 µM (inactive) | > 100 µM (inactive) | > 100 µM (inactive) | > 100 µM (inactive) | > 100 µM (inactive) | > 100 µM (inactive) | > 100 µM (inactive) | 
